Test results published in PubChem BioAssay AID1963867 (Molecular Pharmacology Branch, DTP, NCI, 2024).
pIC50: −log10 of the molar value.

Tested on: KRAS-mutant PDC tumor spheroid with HUVEC/MSC, viability
Assay: Anticancer human tumor 327498-153-R-J2-PDC patient-derived uterine carcinosarcoma cell line growth inhibition [KRAS2]
Settings: for pIC50: curve of first compound; for viability, T/C: stronger effect = lower value
Excerpt: Multicellular complex tumor spheroid response to RAS pathway inhibitors in combination with a targeted agents in patient-derived cell lines with oncogenic KRAS variants from multiple cancer types
A high-throughput screen of multi-cell type tumor spheroids was designed to identify active combinations of targeted small molecules and KRAS pathway inhibitors. Complex spheroids include a stromal component modeled by human endothelial cells (HUVEC) and fibroblasts modeled by human mesenchymal stem cells (MSCs). The concentration ranges selected for each drug and investigational agent were based upon clinically achievable concentrations if the clinical Cmax of the agent was known.
Compounds. The drugs and investigational agents: BI-3406 (NSC825286), BAY-293 (NSC824723), batoprotafib (TNO155; NSC825523), sotorasib (AMG 510; NSC818433), MRTX1257 (NSC819558), elimusertib (BAY 1895344; NSC800525), molibresib (GSK525762; NSC774829), temuterkib (LY3214996; NSC803410), venetoclax (NSC766270), alisertib (NSC759677), olaparib (NSC753686), talazoparib (NSC767125), erdafitinib (NSC781556), ipatasertib (NSC767898), cabozantinib (NSC761068), nintedanib (NSC756659), abemaciclib (NSC768073), docetaxel (NSC628503), trametinib (NSC758246), and sapanisertib (NSC764658) were obtained from the National Cancer Institute (NCI) Developmental Therapeutics Program Chemical Repository. The FDA-approved anticancer drug set is available from the Developmental Therapeutics Program. […] The stock solutions were prepared in dimethyl sulfoxide (DMSO, Sigma-Aldrich, St. Louis, MO, cat. D2650) at 800-fold the tested concentration and stored at -70 degrees C prior to their use. All drugs and investigational agents were tested over a range starting from a high concentration at or near the clinical Cmax and decreasing in half-log increments. If the clinical Cmax for an agent had not been determined, the highest concentration tested was 10 microM.
Cell Culture. All cells were maintained in an incubator at 37 degrees C and 5% CO2 with 95% humidity. The PDC lines were cultured according to standard operating procedures established by the NCI PDMR (https://pdmr.cancer.gov/sops/default.htm). Briefly, all PDCs were thawed and cultured in Matrigel-coated flasks prepared with a working solution of 1X Ham's F-12 nutrient mix, without supplementation (Invitrogen, Waltham, MA, cat. 11765054), 100 U/mL penicillin-streptomycin (Invitrogen, cat. 15140122), and 2.5% Matrigel (Corning Inc., Corning, NY, cat. 354248) for the first three passages. All PDCs were cultured in complete DMEM/F-12 media containing advanced DMEM/F-12 (Invitrogen, cat. 12634028), 4.9% defined fetal bovine serum, heat inactivated (HyClone Laboratories Inc., Logan, UT, cat. SH30070.03HI), 389 ng/mL hydrocortisone (Sigma-Aldrich, cat. H4001), 9.7 ng/mL human EGF recombinant protein (Invitrogen, cat. PHG0313), 23.4 microg/mL adenine (Sigma-Aldrich, cat. A2786), 97.3 U/mL penicillin-streptomycin (Invitrogen, cat. 15140122), 1.9 mM L-glutamine (Invitrogen, cat. 25030081), and 9.7 microM Y-27632 dihydrochloride (Tocris Bioscience, Bristol, United Kingdom, cat. 1254). The PDCs were cultured in complete DMEM/F12 media without 9.7 microM Y-27632 dihydrochloride for at least two passages prior to the screen. The established cell line HOP-62 was cultured in RPMI 1640 medium, HEPES (Invitrogen, cat. 22400105) with 10% defined fetal bovine serum (HyClone Laboratories Inc., cat. SH30070.03) and 2 mM L-glutamine (Invitrogen, cat. 25030081). The pooled donor HUVEC were cultured in endothelial cell growth medium 2 (PromoCell, Heidelberg, Germany, cat. C-22011) and the hMSC were cultured in mesenchymal stem cell growth medium 2 (PromoCell, cat. C-28009). For all experiments, HUVEC and hMSC were used at passages </=5, while the malignant cell lines were used at passages </=15. […]

[1] = second compound 0.1 µM, first compound 0.0316 µM
[2] = second compound 0.1 µM, first compound 0.1 µM
[3] = second compound 0.1 µM, first compound 0.316 µM
[4] = second compound 0.1 µM, first compound 1 µM
[5] = second compound 0.1 µM, first compound 3.16 µM
[6] = second compound 0.1 µM, first compound 10 µM
[7] = second compound 0.316 µM, first compound 0.0316 µM
[8] = second compound 0.316 µM, first compound 0.1 µM
[9] = second compound 0.316 µM, first compound 0.316 µM
[10] = second compound 0.316 µM, first compound 1 µM
[11] = second compound 0.316 µM, first compound 3.16 µM
[12] = second compound 0.316 µM, first compound 10 µM
[13] = second compound 1 µM, first compound 0.0316 µM
[14] = second compound 1 µM, first compound 0.1 µM
[15] = second compound 1 µM, first compound 0.316 µM
[16] = second compound 1 µM, first compound 1 µM
[17] = second compound 1 µM, first compound 3.16 µM
[18] = second compound 1 µM, first compound 10 µM
[19] = second compound 3.16 µM, first compound 0.0316 µM
[20] = second compound 3.16 µM, first compound 0.1 µM
[21] = second compound 3.16 µM, first compound 0.316 µM
[22] = second compound 3.16 µM, first compound 1 µM
[23] = second compound 3.16 µM, first compound 3.16 µM
[24] = second compound 3.16 µM, first compound 10 µM
[25] = second compound 10 µM, first compound 0.0316 µM
[26] = second compound 10 µM, first compound 0.1 µM
[27] = second compound 10 µM, first compound 0.316 µM
[28] = second compound 10 µM, first compound 1 µM
[29] = second compound 10 µM, first compound 3.16 µM
[30] = second compound 10 µM, first compound 10 µM
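Also: spheroids exposed to agents for seven days before reading.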
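For viability, T/C in this document: 100% = DMSO vehicle wells so lower means fewer viable cells.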

CC1OCC2(CCN(c3cnc(Sc4ccnc(N)c4Cl)c(N)n3)CC2)C1N (stereo not given) + C=CC(=O)N1CCN(c2nc(=O)n(-c3c(C)ccnc3C(C)C)c3nc(-c4c(O)cccc4F)c(F)cc23)C(C)C1
pIC50 (second compound 0.1 µM): > 7.50 | pIC50 (second compound 0.316 µM): > 7.50 | pIC50 (second compound 1 µM): > 7.50 | pIC50 (second compound 3.16 µM): > 7.50 | pIC50 (second compound 10 µM): > 7.50 | viability, T/C [1]: 44.1% | viability, T/C [2]: 34.8% | viability, T/C [3]: 25.5% | viability, T/C [4]: 25.2% | viability, T/C [5]: 21% | viability, T/C [6]: 16.3% | viability, T/C [7]: 41.1% | viability, T/C [8]: 33.4% | viability, T/C [9]: 26.4% | viability, T/C [10]: 23.3% | viability, T/C [11]: 19.1% | viability, T/C [12]: 15.9% | viability, T/C [13]: 40.6% | viability, T/C [14]: 31.6% | viability, T/C [15]: 31.7% | viability, T/C [16]: 22.9% | viability, T/C [17]: 17.8% | viability, T/C [18]: 16.9% | viability, T/C [19]: 41.8% | viability, T/C [20]: 37.4% | viability, T/C [21]: 28.7% | viability, T/C [22]: 23.2% | viability, T/C [23]: 22.8% | viability, T/C [24]: 19.4% | viability, T/C [25]: 33.3% | viability, T/C [26]: 28% | viability, T/C [27]: 23.1% | viability, T/C [28]: 21.1% | viability, T/C [29]: 16.1% | viability, T/C [30]: 16.9%

Cn1nccc1Nc1nccc(-c2cc3c(s2)C(C)(C)N(CCN2CCOCC2)C3=O)n1 + C=CC(=O)N1CCN(c2nc(=O)n(-c3c(C)ccnc3C(C)C)c3nc(-c4c(O)cccc4F)c(F)cc23)C(C)C1
pIC50 (second compound 0.1 µM): 5.85 | pIC50 (second compound 0.316 µM): 5.65 | pIC50 (second compound 1 µM): 5.51 | pIC50 (second compound 3.16 µM): 6.03 | pIC50 (second compound 10 µM): > 7.50 | viability, T/C [1]: 60.7% | viability, T/C [2]: 61.5% | viability, T/C [3]: 55.8% | viability, T/C [4]: 54.8% | viability, T/C [5]: 41.8% | viability, T/C [6]: 36.5% | viability, T/C [7]: 55.7% | viability, T/C [8]: 63.8% | viability, T/C [9]: 55.1% | viability, T/C [10]: 54% | viability, T/C [11]: 46.6% | viability, T/C [12]: 42.2% | viability, T/C [13]: 63% | viability, T/C [14]: 56.3% | viability, T/C [15]: 60.9% | viability, T/C [16]: 55.2% | viability, T/C [17]: 49.1% | viability, T/C [18]: 42.4% | viability, T/C [19]: 60.5% | viability, T/C [20]: 59.3% | viability, T/C [21]: 50.8% | viability, T/C [22]: 49.6% | viability, T/C [23]: 48.3% | viability, T/C [24]: 40.5% | viability, T/C [25]: 49.9% | viability, T/C [26]: 47.8% | viability, T/C [27]: 45.3% | viability, T/C [28]: 37.7% | viability, T/C [29]: 41.1% | viability, T/C [30]: 29.3%

CC(=O)OC12COC1CC(O)C1(C)C(=O)C(O)C3=C(C)C(OC(=O)C(O)C(NC(=O)OC(C)(C)C)c4ccccc4)CC(O)(C(OC(=O)c4ccccc4)C21)C3(C)C (stereo not given) + C=CC(=O)N1CCN(c2nc(OCC3CCCN3C)nc3c2CCN(c2cccc4cccc(C)c24)C3)CC1CC#N
pIC50 (second compound 0.0316 µM): > 8.00 | pIC50 (second compound 0.1 µM): > 8.00 | pIC50 (second compound 0.316 µM): > 8.00 | pIC50 (second compound 1 µM): > 8.00 | pIC50 (second compound 3.16 µM): > 8.00 | viability, T/C (second compound 0.0316 µM, first compound 0.01 µM): 6.75% | viability, T/C (second compound 0.0316 µM, first compound 0.0316 µM): 5.33% | viability, T/C (second compound 0.0316 µM, first compound 0.1 µM): 6.51% | viability, T/C (second compound 0.0316 µM, first compound 0.316 µM): 6.19% | viability, T/C (second compound 0.0316 µM, first compound 1 µM): 7.48% | viability, T/C (second compound 0.0316 µM, first compound 3.16 µM): 10.1% | viability, T/C (second compound 0.1 µM, first compound 0.01 µM): 5.53% | viability, T/C [1]: 4.17% | viability, T/C [2]: 3.96% | viability, T/C [3]: 4.52% | viability, T/C [4]: 6.93% | viability, T/C [5]: 8.74% | viability, T/C (second compound 0.316 µM, first compound 0.01 µM): 4.9% | viability, T/C [7]: 4.31% | viability, T/C [8]: 4.23% | viability, T/C [9]: 4.71% | viability, T/C [10]: 5.82% | viability, T/C [11]: 7.76% | viability, T/C (second compound 1 µM, first compound 0.01 µM): 4.4% | viability, T/C [13]: 3.43% | viability, T/C [14]: 3.95% | viability, T/C [15]: 3.86% | viability, T/C [16]: 5.54% | viability, T/C [17]: 4.84% | viability, T/C (second compound 3.16 µM, first compound 0.01 µM): 7.35% | viability, T/C [19]: 6.27% | viability, T/C [20]: 5.84% | viability, T/C [21]: 6.15% | viability, T/C [22]: 7.24% | viability, T/C [23]: 10.6%
